# Results published in US8865967B2 (priority 2010, dated 2014).
# Experiments:
# [1] = system: Colletotrichum graminicola (CGR; isolate Carroll-IA-99); type: cell-based; conditions: for IC50 (ppm) High Salt Cgr: high salt: 1/2x liquid media plus 1 mM calcium chloride, 50 mM potassium chloride, Table 1; for IC50 (ppm) Low Salt Cgr: low salt: 1/8x Czapek-Dox broth plus 0.25 mM calcium chloride, 12.5 mM potassium chloride
# [2] = system: Fusarium graminearum (FGR; isolate 73B ISU); type: cell-based; conditions: for IC50 (ppm) High Salt Fgr: high salt: 1/2x liquid media plus 1 mM calcium chloride, 50 mM potassium chloride; for IC50 (ppm) Low Salt Fgr: low salt: 1/8x potato dextrose broth plus 0.25 mM calcium chloride, 12.5 mM potassium chloride
# [3] = system: Fusarium verticillioides (FVE); type: cell-based
# Diplodia maydis (DMA) = type: cell-based; conditions: for IC50 (ppm) High Salt Dma: high salt: 1/2x liquid media plus 1 mM calcium chloride, 50 mM potassium chloride
# C. graminicola = assay: Invasion of leaf sheaths of transgenic maize by C. graminicola; type: in vivo, Colletotrichum graminicola; conditions: greenhouse, T0 V5-stage maize
# Experimental: The leaf sheaths of leaf 4 or 5 of T0 plants at the V5 stage were inoculated with 50 μL of 5×10^6 spores/mL after wounding the leaf sheath on both sides of the midrib about half way between edge and midrib with a small screwdriver. The leaf sheath was covered with plastic wrap for 5 days. Nine days after inoculation the area of lesions was measured.
Substance,"Antifungal activity (IC50 in ppm) against C. graminicola under high salt conditions ([1]; high salt conditions, Table 2)",IC50 (ppm) High Salt Cgr [1],IC50 (ppm) Low Salt Cgr [1],IC50 (ppm) High Salt Fgr [2],IC50 (ppm) Low Salt Fgr [2],IC50 (ppm) High Salt Fve [3],IC50 (ppm) High Salt Dma (Diplodia maydis (DMA)),relation of protein level to disease development (C. graminicola; leaf sheath invasion by CGR),"invasion of leaf sheaths by CGR compared to empty vector controls (C. graminicola; protein accumulated in endoplasmic reticulum, two transformation constructs)",IC50 (ppm) Low Salt Fve [3],"IC50 (ppm) Low Salt Dma (Diplodia maydis (DMA); low salt: 1/8x potato dextrose broth plus 0.25 mM calcium chloride, 12.5 mM potassium chloride)"
Pp-PDF1-1C-7A4: Pp-PDF1 variant from first shuffling round (RVCEKPSKFFKGLCGSDRDCTNACRKEGLATGECQSKGFFNSVCVCKKPC; Synthetic sequence obtained from DNA shuffling of a plant sequence.),5 ppm,5 ppm,0.1 ppm,20 ppm,4.7 ppm,>200 ppm,50 ppm,correlated inversely with disease development,significantly improved events,,
Pp-PDF1-3CA-2D3: Pp-PDF1 variant from third shuffling round (RVCTKPSKFFRGLCVSDNDCTNACRKEGLPTGFCQSKGFFNSVCVCKKPC; Synthetic sequence obtained from DNA shuffling of a plant sequence.),,0.8 ppm,0.3 ppm,^~100 ppm,15 ppm,200 ppm,25 ppm,,,30 ppm,6 ppm
